Results on 19 compounds are retold here after BindingDB's records for doi:10.1016/j.ejmech.2021.113336 (Zhejiang University, 2021).

The series can be described thus: Inhibition of P-glycoprotein in human MCF7/ADR cells assessed as reversal fold by measuring reduction in doxorubicin IC50 at 5 uM incubated for 48 hrs by CCK-8 assay. (In general: Tetrazolium dyes change colour on reduction, which living cells bring about.)
`COc1cc2c(cc1OC)CN(C(=O)c1ccc(-c3ccc(OC(C)(C)C)cc3)o1)CC2`: the IC50 (commonly the concentration at which inhibition is half-maximal) was determined as 62.7 µM.

With `COc1cc2c(cc1OC)CN(C(=O)c1ccc(-c3ccc(Oc4ccccc4)cc3)o1)CC2`, the IC50 came out at 42 µM.

As for `COc1cc2c(cc1OC)CN(C(=O)c1ccc(-c3ccc(OCC(C)C)cc3)o1)CC2`, the IC50 is 50.9 µM.

For the compound `COc1cc(OC)cc(-c2ccc(C(=O)N3CCc4cc(OC)c(OC)cc4C3)o2)c1`, the IC50 turned out to be 19.8 µM.

Turning to `COc1cccc(-c2ccc(C(=O)N3CCc4cc(OC)c(OC)cc4C3)o2)c1`, the IC50 came out at 6.7 µM.

For `CCCCOc1ccc(-c2ccc(C(=O)N3CCc4cc(OC)c(OC)cc4C3)o2)cc1`, the IC50 was 62.7 µM.

In the case of `CCCOc1ccc(-c2ccc(C(=O)N3CCc4cc(OC)c(OC)cc4C3)o2)cc1`, the IC50 is 44.6 µM.

Take `COc1ccc(-c2ccc(C(=O)N3CCc4cc(OC)c(OC)cc4C3)o2)cc1OC`: the IC50 was 9.7 µM.

Regarding `COc1cc2c(cc1OC)CN(C(=O)c1ccc(-c3ccc4c(c3)OCO4)o1)CC2`, the IC50 was 8.4 µM.

For `COc1ccc(-c2ccc(C(=O)N3CCc4cc(OC)c(OC)cc4C3)o2)cc1`, the IC50 was determined as 9.1 µM.

`COc1ccc(-c2ccc(C(=O)N3CCc4cc(OC)c(OC)cc4C3)o2)c(OC)c1`: the IC50 stood at 18.3 µM.

For `COc1cc2c(cc1OC)CN(C(=O)c1ccc(-c3cccc(OC)c3OC)o1)CC2`, the IC50 was 15.1 µM.

For `COc1cc2c(cc1OC)CN(C(=O)c1ccc(-c3ccccc3OC)o1)CC2`, the IC50 was determined as 13.5 µM.

Regarding `COc1cc2c(cc1OC)CN(C(=O)c1ccc(-c3ccc(OC(C)C)cc3)o1)CC2`, the IC50 amounted to 69.6 µM.

In the case of `COc1cc2c(cc1OC)CN(C(=O)c1ccc(-c3ccc(SC(C)C)cc3)o1)CC2`, the IC50 is 64.4 µM.

Take `COc1cc2c(cc1OC)CN(C(=O)c1ccc(-c3cc(OC)c(OC)c(OC)c3)o1)CC2`: the IC50 worked out at 18.2 µM.

On to `COc1cc2c(cc1OC)CN(C(=O)c1ccc(-c3ccc(OC(F)(F)F)cc3)o1)CC2`, for which the IC50 was determined as 11.7 µM.

With `CCOc1ccc(-c2ccc(C(=O)N3CCc4cc(OC)c(OC)cc4C3)o2)cc1`, the IC50 worked out at 15.4 µM.

For the compound `COc1ccc(OC)c(-c2ccc(C(=O)N3CCc4cc(OC)c(OC)cc4C3)o2)c1`, the IC50 is 18.8 µM.
